Measured values: publication PMC7575681 (EJNMMI Research, 2020)

Key:
[1] = design: method as in PMID 21498533; conditions: cited from earlier work
[2] = Micro-PET/CT brain imaging in ICR mice with thiamine deficiency (TD) and control mice; format: in vivo; conditions: control mice (C57BL/6 and ICR, Fig. 3a, c)
Text: Eight-week-old male C57BL/6 and ICR mice were randomly divided into two groups: TD mouse models (n = 2 for C57BL/6, one died due to anesthesia during micro-PET/CT scanning; n = 3 for ICR) were established by feeding thiamine-deprived diet (Trophic Animal Feed High-tech Co., Ltd., China). Control mice (n = 3 for each strain) were fed the general diet. Twenty-eight days later, all mice received PET/CT scanning.
The animals were anesthetized by inhaling 1.5–2% of isoflurane in air (1.5 L/min) and received CT scan for acquiring structure image and attenuation correction data. […] Brain PET imaging was immediately performed and dynamically acquired for 90 min with an energy window of 350–650 KeV and a time window of 3.438 ns. […] Dynamic images were reconstructed by OSEM3D/SP-MAP algorithm with two iterations. After scanning, the mice were sacrificed.

| Compound | SUV in the brains of mice [1] | SUVs in the brains [2] |
| --- | --- | --- |
| OC[C@H]1OC(O)[C@H]([18F])[C@@H](O)[C@@H]1O (some centres unmarked) [FDG, [^18F]-fluorodeoxyglucose] | 1–2 | – |
| ^18F-deoxy-thiamine | – | less than 0.4 |
